Test results reported in patent US20230085307A1, “PYRIDAZINONE COMPOUND AND HERBICIDE” (NISSAN CHEMICAL CORPORATION, priority 2019, published 2023).

Experiments:
Italian ryegrass [1] = assay: Test Example 5: herbicidal effect by foliage application, plastic box (Table 20, symbol K); assay type: in vivo, Italian ryegrass (Lolium multiflorum); settings: foliage application, AAH 320 g/ha, three weeks after application
Outline: (§1)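 Post-emergence foliar test in sterilized diluvial soil. Compound applied as water-diluted emulsion at a predetermined rate to 14-day-old plants; evaluation at three weeks.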

southern crabgrass = assay: Test Example 5: herbicidal effect by foliage application, plastic box (Table 20, symbol F); assay type: in vivo, southern crabgrass (Digitaria ciliaris); settings: foliage application, AAH 320 g/ha, three weeks after application
Outline: as §1

redroot pigweed = assay: Test Example 4: herbicidal effect by soil treatment (Table 19, symbol N); assay type: in vivo, redroot pigweed (Amaranthus retroflexus); settings: amount of applied herbicide 320 g/ha
Outline: (§2)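 Scoring uses the grading scale of an earlier test, three weeks post-application. Treatment consists of spraying a diluted emulsion formulation across the surface of sterilized diluvial soil in which seeds are buried near 1.5 cm deep; boxes are kept in a greenhouse between 25° C. and 30° C.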

rice flat sedge = assay: Test Example 3: herbicidal effect by foliage application, Wagner pot (Table 18, symbol E); assay type: in vivo, rice flat sedge (Cyperus iria); settings: 320 g/ha
Outline: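 Plants were sown in alluvial soil held under 0.1–0.5 cm standing water and grown 14 days in a greenhouse at 25–30 °C. An emulsifiable formulation, water-diluted to the set dose, was then sprayed onto the foliage, and effects were scored three weeks later using previously defined criteria.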

persian speedwell = assay: Test Example 5: herbicidal effect by foliage application, plastic box (Table 20, symbol R); assay type: in vivo, Persian speedwell (Veronica persica); settings: foliage application, AAH 320 g/ha, three weeks after application
Outline: as §1

green foxtail [2] = assay: Test Example 4: herbicidal effect by soil treatment (Table 19, symbol G); assay type: in vivo, green foxtail (Setaria viridis); settings: amount of applied herbicide 320 g/ha
Outline: as §2

velvetleaf [3] = assay: Test Example 5: herbicidal effect by foliage application, plastic box (Table 20, symbol M); assay type: in vivo, velvetleaf (Abutilon theophrasti); settings: foliage application, AAH 320 g/ha, three weeks after application
Outline: as §1

late watergrass = assay: Test Example 2: herbicidal activity, application during weed generation under submerged conditions (Table 17, symbol A); assay type: in vivo, late watergrass (Echinochloa oryzicola); settings: AAH 320 g/ha; application during weed generation, submerged conditions
Outline: (§3)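 3-wk visual-criteria score after one water-surface dose. Emulsion formulation, water-diluted to set rate; applied at 1–2 leaf stage; alluvial soil, 4 cm standing water; seeds co-sown; greenhouse 25–30° C.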

wild oat [4] = assay: Test Example 4: herbicidal effect by soil treatment (Table 19, symbol I); assay type: in vivo, wild oat (Avena fatua); settings: amount of applied herbicide 320 g/ha
Outline: as §2

blackgrass = assay: Test Example 4: herbicidal effect by soil treatment (Table 19, symbol J); assay type: in vivo, blackgrass (Alopecurus myosuroides); settings: amount of applied herbicide 320 g/ha
Outline: as §2

Italian ryegrass [5] = assay: Test Example 4: herbicidal effect by soil treatment (Table 19, symbol K); assay type: in vivo, Italian ryegrass (Lolium multiflorum); settings: amount of applied herbicide 320 g/ha
Outline: as §2

chickweed = assay: Test Example 4: herbicidal effect by soil treatment (Table 19, symbol P); assay type: in vivo, common chickweed (Stellaria media); settings: amount of applied herbicide 320 g/ha
Outline: as §2

oval-leafed pondweed [6] = assay: Test Example 1: herbicidal activity, application before weed generation under submerged conditions (Table 16, symbol C); assay type: in vivo, oval-leafed pondweed (Monochoria vaginalis); settings: 320 g/ha applied herbicide
Outline: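 Alluvial soil was flooded to 4 cm depth, weed seeds were sown mixed and 2.5-leaf rice seedlings were transplanted. On sowing day, the compound's emulsion, diluted in water to a set dose, was applied to the water surface. Plants grew at 25–30 °C and were scored 0–5 after three weeks.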

green foxtail [7] = assay: Test Example 5: herbicidal effect by foliage application, plastic box (Table 20, symbol G); assay type: in vivo, green foxtail (Setaria viridis); settings: foliage application, AAH 320 g/ha, three weeks after application
Outline: as §1

velvetleaf [8] = assay: Test Example 4: herbicidal effect by soil treatment (Table 19, symbol M); assay type: in vivo, velvetleaf (Abutilon theophrasti); settings: amount of applied herbicide 320 g/ha
Outline: as §2

oval-leafed pondweed [9] = assay: Test Example 2: herbicidal activity, application during weed generation under submerged conditions (Table 17, symbol C); assay type: in vivo, oval-leafed pondweed (Monochoria vaginalis); settings: AAH 320 g/ha; application during weed generation, submerged conditions
Outline: as §3

wild oat [10] = assay: Test Example 5: herbicidal effect by foliage application, plastic box (Table 20, symbol I); assay type: in vivo, wild oat (Avena fatua); settings: foliage application, AAH 320 g/ha, three weeks after application
Outline: as §1

| SMILES | K: Italian ryegrass, herbicidal effect (Italian ryegrass [1]) | F: southern crabgrass, herbicidal effect (southern crabgrass) | herbicidal effect rating, N: redroot pigweed (redroot pigweed) | herbicidal effect on E (rice flat sedge), rating 0-5 (rice flat sedge) | R: persian speedwell, herbicidal effect (persian speedwell) | herbicidal effect rating, G: green foxtail (green foxtail [2]) | M: velvetleaf, herbicidal effect (velvetleaf [3]) | herbicidal effect rating, A: late watergrass (late watergrass) | herbicidal effect rating, I: wild oat (wild oat [4]) | herbicidal effect rating, J: blackgrass (blackgrass) | herbicidal effect rating, K: Italian ryegrass (Italian ryegrass [5]) | herbicidal effect rating, P: chickweed (chickweed) | Herbicidal effect on C: oval-leafed pondweed (grade 0-5) (oval-leafed pondweed [6]) | G: green foxtail, herbicidal effect (green foxtail [7]) | herbicidal effect rating, M: velvetleaf (velvetleaf [8]) | herbicidal effect rating, C: oval-leafed pondweed (oval-leafed pondweed [9]) | I: wild oat, herbicidal effect (wild oat [10]) |
| --- | --- | --- | --- | --- | --- | --- | --- | --- | --- | --- | --- | --- | --- | --- | --- | --- | --- |
| CCCC(=O)Oc1c(C)nn(C)c(=O)c1-c1c(-c2ccc3c(c2)OCCO3)sc2ccccc12 [1-090] | 3 (Herbicidal rate of 40% or more and less than 70%) | 3 (Herbicidal rate of 40% or more and less than 70%) | 2 (Herbicidal rate of 20% or more and less than 40%) | 5 (Herbicidal rate of 90% or more (almost completely withered)) | 5 (Herbicidal rate of 90% or more (almost completely withered)) | 3 (Herbicidal rate of 40% or more and less than 70%) | 4 (Herbicidal rate of 70% or more and less than 90%) | 4 (Herbicidal rate of 70% or more and less than 90%) | 0 (Herbicidal rate of 5% or less (almost no effect)) | 0 (Herbicidal rate of 5% or less (almost no effect)) | 0 (Herbicidal rate of 5% or less (almost no effect)) | 4 (Herbicidal rate of 70% or more and less than 90%) | 5 (Herbicidal rate of 90% or more (almost completely withered)) | 5 (Herbicidal rate of 90% or more (almost completely withered)) | 0 (Herbicidal rate of 5% or less (almost no effect)) | 4 (Herbicidal rate of 70% or more and less than 90%) | 0 (Herbicidal rate of 5% or less (almost no effect)) |
| COC(=O)Oc1c(C)nn(C)c(=O)c1-c1c(-c2ccc3c(c2)OCCO3)sc2ccccc12 [1-091] | 4 (Herbicidal rate of 70% or more and less than 90%) | 5 (Herbicidal rate of 90% or more (almost completely withered)) | 3 (Herbicidal rate of 40% or more and less than 70%) | 5 (Herbicidal rate of 90% or more (almost completely withered)) | 5 (Herbicidal rate of 90% or more (almost completely withered)) | 5 (Herbicidal rate of 90% or more (almost completely withered)) | 5 (Herbicidal rate of 90% or more (almost completely withered)) | 3 (Herbicidal rate of 40% or more and less than 70%) | 0 (Herbicidal rate of 5% or less (almost no effect)) | 0 (Herbicidal rate of 5% or less (almost no effect)) | 0 (Herbicidal rate of 5% or less (almost no effect)) | 5 (Herbicidal rate of 90% or more (almost completely withered)) | 4 (Herbicidal rate of 70% or more and less than 90%) | 5 (Herbicidal rate of 90% or more (almost completely withered)) | 5 (Herbicidal rate of 90% or more (almost completely withered)) | 4 (Herbicidal rate of 70% or more and less than 90%) | 2 (Herbicidal rate of 20% or more and less than 40%) |
| Cc1nn(C)c(=O)c(-c2c(-c3ccc4c(c3)OCCO4)sc3ccccc23)c1OC(=O)SC(C)(C)C [1-092] | 0 (Herbicidal rate of 5% or less (almost no effect)) | 3 (Herbicidal rate of 40% or more and less than 70%) | 0 (Herbicidal rate of 5% or less (almost no effect)) | 5 (Herbicidal rate of 90% or more (almost completely withered)) | 5 (Herbicidal rate of 90% or more (almost completely withered)) | 0 (Herbicidal rate of 5% or less (almost no effect)) | 5 (Herbicidal rate of 90% or more (almost completely withered)) | 3 (Herbicidal rate of 40% or more and less than 70%) | 0 (Herbicidal rate of 5% or less (almost no effect)) | 0 (Herbicidal rate of 5% or less (almost no effect)) | 0 (Herbicidal rate of 5% or less (almost no effect)) | 0 (Herbicidal rate of 5% or less (almost no effect)) | 2 (Herbicidal rate of 20% or more and less than 40%) | 3 (Herbicidal rate of 40% or more and less than 70%) | 0 (Herbicidal rate of 5% or less (almost no effect)) | 0 (Herbicidal rate of 5% or less (almost no effect)) | 0 (Herbicidal rate of 5% or less (almost no effect)) |
| Cc1nn(C)c(=O)c(-c2c(-c3ccc4c(c3)CCO4)sc3ccccc23)c1O [1-101] | 4 (Herbicidal rate of 70% or more and less than 90%) | 5 (Herbicidal rate of 90% or more (almost completely withered)) | 4 (Herbicidal rate of 70% or more and less than 90%) | 5 (Herbicidal rate of 90% or more (almost completely withered)) | 5 (Herbicidal rate of 90% or more (almost completely withered)) | 5 (Herbicidal rate of 90% or more (almost completely withered)) | 5 (Herbicidal rate of 90% or more (almost completely withered)) | 3 (Herbicidal rate of 40% or more and less than 70%) | 0 (Herbicidal rate of 5% or less (almost no effect)) | 0 (Herbicidal rate of 5% or less (almost no effect)) | 4 (Herbicidal rate of 70% or more and less than 90%) | 5 (Herbicidal rate of 90% or more (almost completely withered)) | 5 (Herbicidal rate of 90% or more (almost completely withered)) | 5 (Herbicidal rate of 90% or more (almost completely withered)) | 0 (Herbicidal rate of 5% or less (almost no effect)) | 5 (Herbicidal rate of 90% or more (almost completely withered)) | 3 (Herbicidal rate of 40% or more and less than 70%) |
